Assay results from ChEMBL document CHEMBL3046822, “Synthesis, antiplatelet aggregation activity, and molecular modeling study of novel substituted-piperazine analogues” (2011).
Active and inactive are the calls of the source. No cut-off for these calls is given here.

What was measured:
[1] = test system: Platelet; assay: Antiaggregating activity in Homo sapiens (human) platelet rich plasma assessed as inhibition of arachidonic acid-induced platelet aggregation at 1 uM incubated for 4 min prior to arachidonic acid-induction measured for 5.5 min by turbidometric analysis; type: functional, cell-free
[2] = Antiaggregating activity in Homo sapiens (human) platelet rich plasma assessed as ristocetin-induced platelet aggregation at 1 uM incubated for 4 min prior to ristocetin-induction measured for 5.5 min by turbidometric analysis (reference value: 65 to 99%); type: functional
[3] = test system: Platelet; assay: Antiaggregating activity in Homo sapiens (human) platelet rich plasma assessed as inhibition of adrenaline-induced platelet aggregation at 0.5 uM incubated for 4 min prior to adrenaline-induction measured for 5.5 min by turbidometric analysis; type: functional, cell-free
[4] = test system: Platelet; assay: Antiaggregating activity in Homo sapiens (human) platelet rich plasma assessed as inhibition of arachidonic acid-induced platelet aggregation at 0.5 uM incubated for 4 min prior to arachidonic acid-induction measured for 5.5 min by turbidometric analysis; type: functional
[5] = Antiaggregating activity in Homo sapiens (human) platelet rich plasma assessed as collagen-induced platelet aggregation at 0.5 uM incubated for 4 min prior to collagen-induction measured for 5.5 min by turbidometric analysis (reference value: 50 to 98%); type: functional
[6] = test system: Platelet; assay: Antiaggregating activity in Homo sapiens (human) platelet rich plasma assessed as inhibition of collagen-induced platelet aggregation at 1 uM incubated for 4 min prior to collagen-induction measured for 5.5 min by turbidometric analysis; type: functional, cell-free
[7] = Antiaggregating activity in Homo sapiens (human) platelet rich plasma assessed as ristocetin-induced platelet aggregation at 0.5 uM incubated for 4 min prior to ristocetin-induction measured for 5.5 min by turbidometric analysis (reference value: 65 to 99%); type: functional
[8] = test system: Platelet; assay: Antiaggregating activity in Homo sapiens (human) platelet rich plasma assessed as inhibition of adrenaline-induced platelet aggregation at 1 uM incubated for 4 min prior to adrenaline-induction measured for 5.5 min by turbidometric analysis; type: functional, cell-free
[9] = test system: Platelet; assay: Antiaggregating activity in Homo sapiens (human) platelet rich plasma assessed as inhibition of ADP-induced platelet aggregation at 0.5 uM incubated for 4 min prior to ADP-induction measured for 5.5 min by turbidometric analysis; type: functional, cell-free
[10] = test system: Platelet; assay: Antiaggregating activity in Homo sapiens (human) platelet rich plasma assessed as inhibition of ADP-induced platelet aggregation at 1 uM incubated for 4 min prior to ADP-induction measured for 5.5 min by turbidometric analysis; type: functional, cell-free
[11] = Antiaggregating activity in Homo sapiens (human) platelet rich plasma assessed as disaggregation of ADP-induced platelet aggregation at 1 uM incubated for 4 min prior to ADP-induction measured for 5.5 min by turbidometric analysis relative to control; type: functional
[12] = test system: Platelet; assay: Antiaggregating activity in Homo sapiens (human) platelet rich plasma assessed as inhibition of ADP-induced platelet aggregation at 2 uM incubated for 4 min prior to ADP-induction measured for 5.5 min by turbidometric analysis; type: functional, cell-free
[13] = Antiaggregating activity in Homo sapiens (human) platelet rich plasma assessed as ADP-induced platelet aggregation at 0.5 uM incubated for 4 min prior to ADP-induction measured for 5.5 min by turbidometric analysis (reference value: 54 to 88%); type: functional
[14] = test system: Platelet; assay: Antiaggregating activity in Homo sapiens (human) platelet rich plasma assessed as inhibition of adrenaline-induced platelet aggregation at 5 uM incubated for 4 min prior to adrenaline-induction measured for 5.5 min by turbidometric analysis; type: functional, cell-free
[15] = Antiaggregating activity in Homo sapiens (human) platelet rich plasma assessed as arachidonic acid-induced platelet aggregation at 1 uM incubated for 4 min prior to arachidonic acid-induction measured for 5.5 min by turbidometric analysis (reference value: 55 to 100%); type: functional
[16] = test system: Platelet; assay: Antiaggregating activity in Homo sapiens (human) platelet rich plasma assessed as inhibition of ristocetin-induced platelet aggregation at 5 uM incubated for 4 min prior to ristocetin-induction measured for 5.5 min by turbidometric analysis; type: functional, cell-free
[17] = test system: Platelet; assay: Antiaggregating activity in Homo sapiens (human) platelet rich plasma assessed as inhibition of adrenaline-induced platelet aggregation at 2 uM incubated for 4 min prior to adrenaline-induction measured for 5.5 min by turbidometric analysis; type: functional, cell-free
[18] = test system: Platelet; assay: Antiaggregating activity in Homo sapiens (human) platelet rich plasma assessed as inhibition of arachidonic acid-induced platelet aggregation at 5 uM incubated for 4 min prior to arachidonic acid-induction measured for 5.5 min by turbidometric analysis; type: functional, cell-free
[19] = test system: Platelet; assay: Antiaggregating activity in Homo sapiens (human) platelet rich plasma assessed as inhibition of ADP-induced platelet aggregation at 5 uM incubated for 4 min prior to ADP-induction measured for 5.5 min by turbidometric analysis; type: functional, cell-free
[20] = test system: Platelet; assay: Antiaggregating activity in Homo sapiens (human) platelet rich plasma assessed as inhibition of collagen-induced platelet aggregation at 2 uM incubated for 4 min prior to collagen-induction measured for 5.5 min by turbidometric analysis; type: functional, cell-free
[21] = test system: Platelet; assay: Antiaggregating activity in Homo sapiens (human) platelet rich plasma assessed as inhibition of collagen-induced platelet aggregation at 5 uM incubated for 4 min prior to collagen-induction measured for 5.5 min by turbidometric analysis; type: functional, cell-free
[22] = Antiaggregating activity in Homo sapiens (human) platelet rich plasma assessed as ristocetin-induced platelet aggregation at 2 uM incubated for 4 min prior to ristocetin-induction measured for 5.5 min by turbidometric analysis (reference value: 65 to 99%); type: functional
[23] = test system: Platelet; assay: Antiaggregating activity in Homo sapiens (human) platelet rich plasma assessed as inhibition of arachidonic acid-induced platelet aggregation at 2 uM incubated for 4 min prior to arachidonic acid-induction measured for 5.5 min by turbidometric analysis; type: functional, cell-free
[24] = Antiaggregating activity in Homo sapiens (human) platelet rich plasma assessed as arachidonic acid-induced platelet aggregation at 0.5 uM incubated for 4 min prior to arachidonic acid-induction measured for 5.5 min by turbidometric analysis (reference value: 55 to 100%); type: functional
[25] = test system: Platelet; assay: Antiaggregating activity in Homo sapiens (human) platelet rich plasma assessed as inhibition of adrenaline-induced platelet aggregation at 2.5 uM incubated for 4 min prior to adrenaline-induction measured for 5.5 min by turbidometric analysis; type: functional, cell-free
[26] = test system: Platelet; assay: Antiaggregating activity in Homo sapiens (human) platelet rich plasma assessed as inhibition of collagen-induced platelet aggregation at 0.5 uM incubated for 4 min prior to collagen-induction measured for 5.5 min by turbidometric analysis; type: functional, cell-free
[27] = Antiaggregating activity in Homo sapiens (human) platelet rich plasma assessed as disaggregation of ADP-induced platelet aggregation at 0.25 uM incubated for 4 min prior to ADP-induction measured for 5.5 min by turbidometric analysis relative to control; type: functional
[28] = test system: Platelet; assay: Antiaggregating activity in Homo sapiens (human) platelet rich plasma assessed as inhibition of adrenaline-induced platelet aggregation at 0.25 uM incubated for 4 min prior to adrenaline-induction measured for 5.5 min by turbidometric analysis; type: functional, cell-free
[29] = test system: Platelet; assay: Antiaggregating activity in Homo sapiens (human) platelet rich plasma assessed as inhibition of arachidonic acid-induced platelet aggregation at 0.25 uM incubated for 4 min prior to arachidonic acid-induction measured for 5.5 min by turbidometric analysis; type: functional, cell-free
[30] = test system: Platelet; assay: Antiaggregating activity in Homo sapiens (human) platelet rich plasma assessed as inhibition of collagen-induced platelet aggregation at 2.5 uM incubated for 4 min prior to collagen-induction measured for 5.5 min by turbidometric analysis; type: functional, cell-free
[31] = test system: Platelet; assay: Antiaggregating activity in Homo sapiens (human) platelet rich plasma assessed as inhibition of collagen-induced platelet aggregation at 0.25 uM incubated for 4 min prior to collagen-induction measured for 5.5 min by turbidometric analysis; type: functional
[32] = test system: Platelet; assay: Antiaggregating activity in Homo sapiens (human) platelet rich plasma assessed as inhibition of arachidonic acid-induced platelet aggregation at 2.5 uM incubated for 4 min prior to arachidonic acid-induction measured for 5.5 min by turbidometric analysis; type: functional, cell-free
[33] = Antiaggregating activity in Homo sapiens (human) platelet rich plasma assessed as ristocetin-induced platelet aggregation at 0.25 uM incubated for 4 min prior to ristocetin-induction measured for 5.5 min by turbidometric analysis (reference value: 65 to 99%); type: functional
[34] = test system: Platelet; assay: Antiaggregating activity in Homo sapiens (human) platelet rich plasma assessed as inhibition of ADP-induced platelet aggregation at 2.5 uM incubated for 4 min prior to ADP-induction measured for 5.5 min by turbidometric analysis; type: functional, cell-free
[35] = test system: Platelet; assay: Antiaggregating activity in Homo sapiens (human) platelet rich plasma assessed as collagen-induced platelet aggregation at 0.25 uM incubated for 4 min prior to collagen-induction measured for 5.5 min by turbidometric analysis (reference value: 50 to 98%); type: functional
[36] = Antiaggregating activity in Homo sapiens (human) platelet rich plasma assessed as ADP-induced platelet aggregation at 0.1 uM incubated for 4 min prior to ADP-induction measured for 5.5 min by turbidometric analysis (reference value: 54 to 88%); type: functional
[37] = test system: Platelet; assay: Antiaggregating activity in Homo sapiens (human) platelet rich plasma assessed as inhibition of ADP-induced platelet aggregation at 0.25 uM incubated for 4 min prior to ADP-induction measured for 5.5 min by turbidometric analysis; type: functional, cell-free
[38] = Antiaggregating activity in Homo sapiens (human) platelet rich plasma assessed as arachidonic acid-induced platelet aggregation at 0.1 uM incubated for 4 min prior to arachidonic acid-induction measured for 5.5 min by turbidometric analysis (reference value: 55 to 100%); type: functional
[39] = Antiaggregating activity in Homo sapiens (human) platelet rich plasma assessed as collagen-induced platelet aggregation at 0.1 uM incubated for 4 min prior to collagen-induction measured for 5.5 min by turbidometric analysis (reference value: 50 to 98%); type: functional
[40] = test system: Platelet; assay: Antiaggregating activity in Homo sapiens (human) platelet rich plasma assessed as inhibition of adrenaline-induced platelet aggregation at 0.1 uM incubated for 4 min prior to adrenaline-induction measured for 5.5 min by turbidometric analysis; type: functional, cell-free
[41] = Antiaggregating activity in Homo sapiens (human) platelet rich plasma assessed as ristocetin-induced platelet aggregation at 0.1 uM incubated for 4 min prior to ristocetin-induction measured for 5.5 min by turbidometric analysis (reference value: 65 to 99%); type: functional

Structure (SMILES) | inhibition [1] | Activity [2] [%] | inhibition [3] | inhibition [4] | Activity [5] [%] | inhibition [6] | Activity [7] [%] | inhibition [8] | inhibition [9] | inhibition [10] | inhibition [12] | inhibition [14] | inhibition [16] | inhibition [17] | inhibition [18] | inhibition [19] | inhibition [20] | inhibition [21] | Activity [22] [%] | inhibition [23] | other results
Cl.Cl.O=C(C1CCCN(Cc2ccc(CN3CCCC(C(=O)N4CCN(c5ncccn5)CC4)C3)cc2)C1)N1CCN(c2ncccn2)CC1 (stereo not given) | Active | 58 | Active | Active | 23 | Active | 92 | Active | Active | Active |  |  |  |  |  |  |  |  |  |  | 
O=C(c1ccc[n+](Cc2ccccc2F)c1)N1CCN(c2ccccc2Cl)CC1.[Cl-] |  | 85 | Active |  | 90 | Active | 89 | Active |  |  | Active | Active | Active | Active | Active | Active | Active | Active | 66 | Active | Activity [11]: 55%; Activity [13]: 71%; Activity [15]: 80%; Activity [24]: 71%
Cl.O=C(c1ccc(Br)cc1)N1CCCC(C(=O)N2CCN(c3ccccc3Cl)CC2)C1 (stereo not given) |  |  | Active | Active |  |  | 75 |  | Active |  |  |  |  |  |  |  |  |  |  |  | inhibition [25]: Active; inhibition [26]: Active; Activity [27]: 47%; inhibition [28]: Active; inhibition [29]: Active; inhibition [30]: Active; inhibition [31]: Active; inhibition [32]: Active; Activity [33]: 81%; inhibition [34]: Active; inhibition [35]: Active
Cl.Cl.O=C(C1CCCN(Cc2ccccc2F)C1)N1CCN(C(=O)C2CCCN(Cc3ccccc3F)C2)CC1 (stereo not given) | Active | 64 |  |  |  | Active |  | Active |  | Active |  |  |  |  |  |  |  |  |  |  | inhibition [25]: Active; inhibition [30]: Active; inhibition [32]: Active; inhibition [34]: Active; inhibition [35]: Active
Cl.Cl.O=C(C1CCCN(Cc2ccccc2)C1)N1CCN(C(=O)C2CCCN(Cc3ccccc3)C2)CC1 (stereo not given) |  |  |  |  |  |  |  |  |  |  | Active |  |  | Active |  |  | Active |  | 9 | Active | 
Cl.O=C(C1CCCN(Cc2ccccc2)C1)N1CCN(c2ccccc2Cl)CC1 (stereo not given) | Active | 22 | Active | Active |  | Active | 26 | Active | Active | Active |  | Active | Active |  | Active | Active |  | Active |  |  | inhibition [26]: Active; Activity [36]: 86%; inhibition [28]: Active; inhibition [37]: Active; inhibition [29]: Active; inhibition [31]: Active; Activity [33]: 30%; Activity [38]: 23%; Activity [39]: 100%; inhibition [40]: Active; Activity [41]: 90%
